pEC50: −log10 of the molar value.
Tests used:
[1] = biological target: T1, host proteins (proteome-wide) (Homo sapiens, UniProt A0AVT1); test: 2D-TPP in U87 cells (proteome-wide); assay type: binding; conditions: protein A0AVT1 (UBA6)
T1 construct: endogenous in cells; host or cells: U87 cells
T1 sequence (A0AVT1 1-1052): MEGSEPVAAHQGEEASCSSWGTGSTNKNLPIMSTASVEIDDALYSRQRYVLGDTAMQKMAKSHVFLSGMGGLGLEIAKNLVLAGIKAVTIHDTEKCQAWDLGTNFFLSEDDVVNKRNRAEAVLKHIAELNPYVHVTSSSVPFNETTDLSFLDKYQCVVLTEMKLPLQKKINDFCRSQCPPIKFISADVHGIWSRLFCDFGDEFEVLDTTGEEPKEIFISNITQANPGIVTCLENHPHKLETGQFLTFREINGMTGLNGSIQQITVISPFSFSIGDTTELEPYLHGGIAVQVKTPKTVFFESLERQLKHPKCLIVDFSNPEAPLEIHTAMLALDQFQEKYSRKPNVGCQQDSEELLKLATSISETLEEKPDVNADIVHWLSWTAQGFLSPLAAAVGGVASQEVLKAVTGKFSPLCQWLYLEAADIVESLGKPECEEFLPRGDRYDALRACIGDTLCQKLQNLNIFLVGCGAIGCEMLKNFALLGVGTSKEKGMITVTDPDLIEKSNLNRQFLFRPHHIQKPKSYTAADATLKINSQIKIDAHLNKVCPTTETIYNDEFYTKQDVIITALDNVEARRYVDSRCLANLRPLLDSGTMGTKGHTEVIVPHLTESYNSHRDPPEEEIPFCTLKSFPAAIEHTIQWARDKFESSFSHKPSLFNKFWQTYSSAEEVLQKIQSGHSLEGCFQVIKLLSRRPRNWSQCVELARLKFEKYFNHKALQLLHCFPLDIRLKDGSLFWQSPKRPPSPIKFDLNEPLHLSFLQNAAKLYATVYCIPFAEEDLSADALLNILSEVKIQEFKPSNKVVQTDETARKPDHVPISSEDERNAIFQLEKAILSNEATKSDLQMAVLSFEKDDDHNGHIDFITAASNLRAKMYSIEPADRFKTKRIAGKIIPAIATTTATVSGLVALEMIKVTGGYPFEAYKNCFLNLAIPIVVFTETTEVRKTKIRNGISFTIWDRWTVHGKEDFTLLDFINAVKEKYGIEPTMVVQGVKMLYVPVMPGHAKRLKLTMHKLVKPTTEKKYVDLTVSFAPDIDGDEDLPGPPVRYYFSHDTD

[2] = biological target: T2, host proteins (proteome-wide) (Homo sapiens, UniProt A0FGR8); test: 2D-TPP in U87 cells (proteome-wide); assay type: binding
T2 sequence (A0FGR8 1-921): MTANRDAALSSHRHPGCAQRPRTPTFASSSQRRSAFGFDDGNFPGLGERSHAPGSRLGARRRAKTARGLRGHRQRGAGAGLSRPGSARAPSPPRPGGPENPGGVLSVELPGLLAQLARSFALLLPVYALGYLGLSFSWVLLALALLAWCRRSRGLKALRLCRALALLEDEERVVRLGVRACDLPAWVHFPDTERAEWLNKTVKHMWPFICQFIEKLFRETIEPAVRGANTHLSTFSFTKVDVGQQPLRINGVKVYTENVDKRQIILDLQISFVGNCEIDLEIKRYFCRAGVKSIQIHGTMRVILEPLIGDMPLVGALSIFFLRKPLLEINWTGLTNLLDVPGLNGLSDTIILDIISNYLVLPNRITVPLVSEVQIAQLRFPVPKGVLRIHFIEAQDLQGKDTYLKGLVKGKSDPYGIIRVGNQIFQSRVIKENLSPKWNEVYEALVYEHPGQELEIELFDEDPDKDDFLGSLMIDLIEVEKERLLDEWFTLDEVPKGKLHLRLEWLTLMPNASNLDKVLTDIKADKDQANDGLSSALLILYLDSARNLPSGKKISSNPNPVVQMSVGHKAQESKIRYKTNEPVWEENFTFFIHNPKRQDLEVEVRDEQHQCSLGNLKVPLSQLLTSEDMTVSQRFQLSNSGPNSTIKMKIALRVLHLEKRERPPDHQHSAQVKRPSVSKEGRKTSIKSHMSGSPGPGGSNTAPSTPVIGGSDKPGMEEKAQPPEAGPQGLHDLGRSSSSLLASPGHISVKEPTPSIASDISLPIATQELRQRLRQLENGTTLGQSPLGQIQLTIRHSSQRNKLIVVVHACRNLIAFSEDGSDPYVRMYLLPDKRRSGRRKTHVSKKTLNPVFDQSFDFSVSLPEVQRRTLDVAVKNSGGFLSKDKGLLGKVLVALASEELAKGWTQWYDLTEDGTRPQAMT

[3] = tested on: host proteins (proteome-wide); test: 2D-TPP in U87 cells (proteome-wide); assay type: binding, Homo sapiens; conditions: protein A0A087WUL8 (NBPF19¦NBPF26¦NBPF1¦NBPF20¦NBPF8¦NBPF12¦NBPF14)
HYOU1 = biological target: T3, HYOU1 (Homo sapiens, UniProt Q9Y4L1); test: 2D-TPP in U87 cells; assay type: binding; conditions: 1.5 h, stabilized, read-out: pEC50 of protein stabilization, HYOU1 (converted)
T3 construct: endogenous in cells; host or cells: U87 cells
T3 sequence (Q9Y4L1 33-999): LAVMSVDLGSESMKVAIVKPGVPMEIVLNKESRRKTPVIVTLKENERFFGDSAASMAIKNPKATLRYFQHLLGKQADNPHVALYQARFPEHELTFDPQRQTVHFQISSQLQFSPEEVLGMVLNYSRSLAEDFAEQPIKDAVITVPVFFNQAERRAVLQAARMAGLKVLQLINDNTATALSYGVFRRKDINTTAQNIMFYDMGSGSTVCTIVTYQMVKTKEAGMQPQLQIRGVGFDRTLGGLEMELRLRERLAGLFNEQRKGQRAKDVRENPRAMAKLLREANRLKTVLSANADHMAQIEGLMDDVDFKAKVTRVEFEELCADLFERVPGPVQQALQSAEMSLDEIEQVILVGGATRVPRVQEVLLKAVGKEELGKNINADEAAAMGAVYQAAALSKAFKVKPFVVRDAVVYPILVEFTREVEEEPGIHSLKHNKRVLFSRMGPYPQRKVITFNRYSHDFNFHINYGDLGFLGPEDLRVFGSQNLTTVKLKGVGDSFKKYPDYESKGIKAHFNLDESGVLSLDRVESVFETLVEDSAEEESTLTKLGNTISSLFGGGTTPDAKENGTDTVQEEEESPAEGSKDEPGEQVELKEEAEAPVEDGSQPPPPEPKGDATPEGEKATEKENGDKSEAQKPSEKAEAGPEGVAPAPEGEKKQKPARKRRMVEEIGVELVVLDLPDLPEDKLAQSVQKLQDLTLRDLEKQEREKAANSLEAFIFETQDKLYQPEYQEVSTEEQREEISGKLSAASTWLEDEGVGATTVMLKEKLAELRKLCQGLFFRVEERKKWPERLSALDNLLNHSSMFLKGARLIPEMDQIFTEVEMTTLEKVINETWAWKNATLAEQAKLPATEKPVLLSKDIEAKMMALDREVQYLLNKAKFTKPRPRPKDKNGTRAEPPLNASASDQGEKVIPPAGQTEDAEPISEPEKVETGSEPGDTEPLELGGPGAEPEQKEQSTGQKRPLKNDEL

DNAJB11 = biological target: T4, DNAJB11 (Homo sapiens, UniProt Q9UBS4); test: TPP-TR in HAZV-infected SW13 cells
T4 sequence (Q9UBS4 23-358): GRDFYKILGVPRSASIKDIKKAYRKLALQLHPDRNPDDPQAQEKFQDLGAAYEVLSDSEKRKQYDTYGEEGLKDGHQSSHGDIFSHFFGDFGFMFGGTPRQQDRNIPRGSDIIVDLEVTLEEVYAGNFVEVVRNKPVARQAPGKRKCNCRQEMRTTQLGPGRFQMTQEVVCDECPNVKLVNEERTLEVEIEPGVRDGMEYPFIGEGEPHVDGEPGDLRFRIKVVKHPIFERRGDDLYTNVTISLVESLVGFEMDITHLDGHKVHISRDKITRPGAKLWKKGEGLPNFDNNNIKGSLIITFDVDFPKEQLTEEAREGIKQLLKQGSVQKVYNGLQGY

With `CCOC(=O)c1cnn(-c2cccc3c2[nH]c(=O)n3C2CCN(C(=O)Nc3ccc(I)cc3)CC2)c1` [TH6744, ethyl 1-(1-(1-((4-iodophenyl)carbamoyl)piperidin-4-yl)-2-oxo-2,3-dihydro-1H-benzo[d]imidazol-4-yl)-1H-pyrazole-4-carboxylate] the pEC50 ([1]; temperature 51, Set2) was 6.05, the norm_rel_fc_protein_1_unmodified ([1]; temperature 51, dose 1, Set2) was 1.349 and the norm_rel_fc_protein_3_unmodified ([1]; temperature 51, dose 3, Set2) was 1.572. It also gave a norm_rel_fc_protein_10_unmodified ([1]; temperature 51, dose 10, Set2) of 1.5768, a norm_rel_fc_protein_30_unmodified ([1]; temperature 51, dose 30, Set2) of 1.557 and a pec50 ([2]; protein A0FGR8 (ESYT2), temperature 54, Set2) of 5.517. For the same molecule, the norm_rel_fc_protein_1_unmodified ([2]; protein A0FGR8 (ESYT2), temperature 54, dose 1, Set2) was 0.9139, the norm_rel_fc_protein_3_unmodified ([2]; protein A0FGR8 (ESYT2), temperature 54, dose 3, Set2) was 0.7618 and the norm_rel_fc_protein_10_unmodified ([2]; protein A0FGR8 (ESYT2), temperature 54, dose 10, Set2) was 0.587. The norm_rel_fc_protein_30_unmodified ([2]; protein A0FGR8 (ESYT2), temperature 54, dose 30, Set2) was 0.5111, the pec50 ([2]; protein A0FGR8 (ESYT2), temperature 57, Set2) was 5.71 and the norm_rel_fc_protein_1_unmodified ([2]; protein A0FGR8 (ESYT2), temperature 57, dose 1, Set2) was 0.8819. It also gave a norm_rel_fc_protein_3_unmodified ([2]; protein A0FGR8 (ESYT2), temperature 57, dose 3, Set2) of 0.7127, a norm_rel_fc_protein_10_unmodified ([2]; protein A0FGR8 (ESYT2), temperature 57, dose 10, Set2) of 0.531 and a norm_rel_fc_protein_30_unmodified ([2]; protein A0FGR8 (ESYT2), temperature 57, dose 30, Set2) of 0.5493. It also gave a pec50 ([2]; protein A0FGR8-2 (ESYT2), temperature 54, Set2) of 5.517, a norm_rel_fc_protein_1_unmodified ([2]; protein A0FGR8-2 (ESYT2), temperature 54, dose 1, Set2) of 0.9139 and a norm_rel_fc_protein_3_unmodified ([2]; protein A0FGR8-2 (ESYT2), temperature 54, dose 3, Set2) of 0.7618. For the same molecule, the norm_rel_fc_protein_10_unmodified ([2]; protein A0FGR8-2 (ESYT2), temperature 54, dose 10, Set2) was 0.587, the norm_rel_fc_protein_30_unmodified ([2]; protein A0FGR8-2 (ESYT2), temperature 54, dose 30, Set2) was 0.5111 and the pec50 ([3]; temperature 45, Set1) was 5.615. The norm_rel_fc_protein_1_unmodified ([3]; temperature 45, dose 1, Set1) was 0.9697, the norm_rel_fc_protein_3_unmodified ([3]; temperature 45, dose 3, Set1) was 0.761 and the norm_rel_fc_protein_10_unmodified ([3]; temperature 45, dose 10, Set1) was 0.63. For the same molecule, the norm_rel_fc_protein_30_unmodified ([3]; temperature 45, dose 30, Set1) was 0.6272, the EC50 (HYOU1) was 10 µM and the “thermal stability change of DNAJB11” value (DNAJB11; 20 μM, 4 h) was “stabilized”. For the same molecule, the ΔTm at 20 µM (DNAJB11; read-out: ΔTm of DNAJB11) was 13.6 °C.

— PMC7762994 (Viruses, 2020)
